Source: paper PMC6582431 (Chemmedchem, 2018)

Legend:
[1] = CYP450 metabolic stability, mouse liver microsomes; format: in vitro ADME; conditions: 5 μM in liver microsomes, 1 h incubation
FAAH [2] = biological target: T1, FAAH (Mus musculus, UniProt O08914); assay: In vivo FAAH inhibition, liver, after oral administration to mice
T1 sequence (O08914 1-579): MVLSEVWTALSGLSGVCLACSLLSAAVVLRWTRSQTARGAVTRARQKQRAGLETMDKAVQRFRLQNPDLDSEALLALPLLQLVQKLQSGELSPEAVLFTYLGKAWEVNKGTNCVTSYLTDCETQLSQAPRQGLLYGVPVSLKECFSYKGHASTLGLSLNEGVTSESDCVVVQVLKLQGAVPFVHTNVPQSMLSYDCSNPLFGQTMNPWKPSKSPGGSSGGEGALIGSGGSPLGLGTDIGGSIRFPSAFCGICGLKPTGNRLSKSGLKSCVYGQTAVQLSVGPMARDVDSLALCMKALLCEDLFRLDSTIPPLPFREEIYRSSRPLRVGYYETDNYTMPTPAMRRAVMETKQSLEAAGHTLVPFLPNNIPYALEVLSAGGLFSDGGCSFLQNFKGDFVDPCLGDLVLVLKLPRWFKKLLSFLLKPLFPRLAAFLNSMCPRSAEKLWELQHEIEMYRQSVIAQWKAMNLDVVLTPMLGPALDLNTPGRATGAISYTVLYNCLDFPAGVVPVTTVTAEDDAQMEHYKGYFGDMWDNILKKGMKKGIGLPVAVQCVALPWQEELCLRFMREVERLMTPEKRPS

MAGL = biological target: T2, MAGL (Rattus norvegicus, UniProt Q8R431); assay: MAGL activity in rat cerebellum cytosol; format: biochemical; conditions: C inhib=100 μM in rat cerebellum cytosol; Table 5
T2 sequence (Q8R431 1-303): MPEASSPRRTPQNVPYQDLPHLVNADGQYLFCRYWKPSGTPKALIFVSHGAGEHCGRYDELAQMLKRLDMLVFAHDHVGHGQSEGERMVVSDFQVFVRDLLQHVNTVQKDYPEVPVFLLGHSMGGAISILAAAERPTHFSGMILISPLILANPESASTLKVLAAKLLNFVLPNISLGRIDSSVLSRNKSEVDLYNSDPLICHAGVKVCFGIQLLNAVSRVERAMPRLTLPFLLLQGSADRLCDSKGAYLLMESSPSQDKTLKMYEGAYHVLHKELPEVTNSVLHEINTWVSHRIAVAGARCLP

[3] = CYP450 metabolic stability, primate liver microsomes; format: in vitro ADME; conditions: 5 μM in liver microsomes, 1 h incubation
[4] = multiple ascending doses up to 20 mg; cited from earlier work
[5] = CYP450 metabolic stability, human liver microsomes; format: in vitro ADME; conditions: 5 μM in liver microsomes, 1 h incubation
FAAH [6] = biological target: T3, FAAH (Rattus norvegicus, UniProt P97612); assay: In vitro FAAH activity in rat brain homogenates/membranes; format: biochemical; conditions: 100 nM; rat brain homogenates, 15 min pre-incubation; Table 5
T3 sequence (P97612 1-579): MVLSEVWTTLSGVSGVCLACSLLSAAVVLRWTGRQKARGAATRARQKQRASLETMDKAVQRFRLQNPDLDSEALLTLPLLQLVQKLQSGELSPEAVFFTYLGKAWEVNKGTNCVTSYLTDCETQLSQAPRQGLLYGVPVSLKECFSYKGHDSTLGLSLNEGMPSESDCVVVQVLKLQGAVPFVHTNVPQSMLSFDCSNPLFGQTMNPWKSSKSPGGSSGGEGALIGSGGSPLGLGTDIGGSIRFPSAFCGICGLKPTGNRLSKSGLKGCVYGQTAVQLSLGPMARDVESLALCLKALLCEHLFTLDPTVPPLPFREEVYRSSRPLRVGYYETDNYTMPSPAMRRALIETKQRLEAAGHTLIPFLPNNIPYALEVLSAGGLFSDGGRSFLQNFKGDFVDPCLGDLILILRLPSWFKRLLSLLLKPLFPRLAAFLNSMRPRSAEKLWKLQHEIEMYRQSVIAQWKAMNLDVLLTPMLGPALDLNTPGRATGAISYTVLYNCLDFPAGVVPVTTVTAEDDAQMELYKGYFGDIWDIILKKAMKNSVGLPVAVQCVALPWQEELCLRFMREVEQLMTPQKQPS

[7] = CYP450 metabolic stability, dog liver microsomes; format: in vitro ADME; conditions: 5 μM in liver microsomes, 1 h incubation
carboxylesterases (CEs) = assay: CE activity in rat liver microsomes; format: biochemical; conditions: 10 μM in rat liver microsomes; Table 5
[8] = CYP450 metabolic stability, rat liver microsomes; format: in vitro ADME; conditions: 5 μM in liver microsomes, 1 h incubation
FAAH [9] = biological target: T1, FAAH; assay: In vivo FAAH inhibition, brain, after oral administration to mice
[10] = 0.1 mg kg^−1, mouse, p.o., text b31
[11] = 0.1 mg kg^−1 p.o. in mice, 8 h after administration, Table 5
[12] = 0.1 mg kg^−1 p.o., mice, post-dose

CN(C(=O)n1cnc(-c2ccc[n+]([O-])c2)c1)C1CCCCC1 [Compound 8 l, 3‐(1‐(Cyclohexyl(methyl)carbamoyl)‐1H‐imidazol‐4‐yl)pyridine 1‐oxide]
CYP450 metabolic stability, Mouse, percent of remaining [1]: 99±2% of remaining
in vivo FAAH inhibitory activity, liver (FAAH [2]; [10]): > 90 % of control
Liver FAAH activity, percent of control (FAAH [2]; [11]): 6±2% of control
time of maximum inhibitory effect in the liver (FAAH [2]; [12]): 1 h
ED50 (FAAH [2]; mouse, po, 8 h, read-out: ED50 liver FAAH): 7 µg/kg
inhibition at 0.1 mg/kg (FAAH [2]; mouse, po, read-out: peripheral inhibition of FAAH sustained over the next 7 h): > 90%
MAGL (100 μM), percent of control (MAGL): 96±4% of control
CYP450 metabolic stability, Primate, percent of remaining [3]: 88±1% of remaining
systemic exposure to anandamide [4]: increased in a dose‐dependent manner
CYP450 metabolic stability, Human, percent of remaining [5]: 95±1% of remaining
FAAH activity, percent of control, 100 nM (FAAH [6]): 85±11% of control
CYP450 metabolic stability, Dog, percent of remaining [7]: 94±2% of remaining
CEs (10 μM), percent of control (carboxylesterases (CEs)): 102±5% of control
CYP450 metabolic stability, Rat, percent of remaining [8]: 91±1% of remaining
in vivo FAAH inhibitory activity, brain (FAAH [9]; [10]): > 90 % of control
Brain FAAH activity, percent of control (FAAH [9]; [11]): 8±2% of control
maximal inhibitory effect in the brain (FAAH [9]; 0.1 mg kg^−1 p.o., mice, at 8 h post-dose): > 90%
time of maximal inhibitory effect in the brain (t max) (FAAH [9]; [12]): 8 h
central FAAH inhibition maintained up to 48 h post-administration (FAAH [9]; 0.1 mg kg^−1 p.o., mice, up to 48 h): > 50%
ED50 cerebral FAAH (FAAH [9]; mice, p.o., 0.001 to 3 mg kg^−1, 8 h post-administration): ~27 µg/kg
